Among the data in patent US7964725B2, “Heteroarylbenzamide derivatives for use in the treatment of diabetes” (AstraZeneca AB, priority 2006, dated 2011) are melting point and EC50 values, retold here.

Test system in one series: not given
Test: not given
Details: not given
Consider `Cc1cnc(NC(=O)c2cc(Oc3cnc(C(=O)N(C)C)cn3)cc(O[C@@H](C)COC(F)F)c2)cn1` [Example 2, 5-[3-[(2S)-1-(difluoromethoxy)propan-2-yl]oxy-5-[(5-methylpyrazin-2-yl)carbamoyl]phenoxy]-N,N-dimethyl-pyrazine-2-carboxamide], for which the melting point was ~ 75 °C.

The target in the next series is T1, recombinant human pancreatic GLK (Homo sapiens, UniProt P35557).
T1 construct: 6-His (N); made in house; host or cells: E. coli BL21
T1 sequence (P35557 1-465): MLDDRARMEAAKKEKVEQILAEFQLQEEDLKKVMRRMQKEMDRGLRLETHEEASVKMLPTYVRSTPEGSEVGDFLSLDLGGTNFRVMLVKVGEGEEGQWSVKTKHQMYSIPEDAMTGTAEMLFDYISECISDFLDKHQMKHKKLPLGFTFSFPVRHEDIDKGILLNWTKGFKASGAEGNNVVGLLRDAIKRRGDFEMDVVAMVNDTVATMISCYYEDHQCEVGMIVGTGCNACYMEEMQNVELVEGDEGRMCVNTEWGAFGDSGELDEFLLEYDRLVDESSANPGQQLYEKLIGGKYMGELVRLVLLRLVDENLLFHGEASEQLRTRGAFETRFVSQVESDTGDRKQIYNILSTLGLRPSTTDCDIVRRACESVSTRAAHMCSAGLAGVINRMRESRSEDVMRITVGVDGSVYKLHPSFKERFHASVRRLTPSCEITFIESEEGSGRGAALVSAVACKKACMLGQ
The series is described as follows: Enzymatic activity: activation of glucokinase in the absence of GLKRP. In kind it is biochemical. The following applies: G-6-P dehydrogenase NADP/NADPH coupled assay, OD 340 nm. How it is done:
Enzymatic activity of recombinant human pancreatic GLK may be measured by incubating GLK, ATP and glucose. The rate of product formation may be determined by coupling the assay to a G-6-P dehydrogenase, NADP/NADPH system and measuring the linear increase with time of optical density at 340 nm Brocklehurst et al (Diabetes 2004, 53, 535-541). Activation of GLK by compounds can be assessed using this assay in the presence or absence of GLKRP as described in Brocklehurst et al (Diabetes 2004, 53, 535-541).
Human GLK and GLKRP cDNA was obtained by PCR from human pancreatic and hepatic mRNA respectively, using established techniques described in Sambrook J, Fritsch E F & Maniatis T, 1989. PCR primers were designed according to the GLK and GLKRP cDNA sequences shown in Tanizawa et al., Proc Natl Acad Sci 1991 August 15; 88(16):7294-7 and Warner et al., Mamm Genome. 1995 August; 6(8):532-6.
GLK was expressed from the vector pTB375NBSE in E. coli BL21 cells, producing a recombinant protein containing a 6-His tag immediately adjacent to the N-terminal methionine. Alternatively, another suitable vector is pET21(+)DNA, Novagen, Cat number 697703. The 6-His tag was used to allow purification of the recombinant protein on a column packed with nickel-nitrilotriacetic acid agarose purchased from Qiagen (cat no 30250).
A word on the EC50: it is the concentration giving half of the maximal effect. As for `Cc1cnc(NC(=O)c2cc(Oc3ccc(S(C)(=O)=O)nc3)cc(O[C@@H](C)COC(F)F)c2)cn1` [Example 1, 3-[(2S)-1-(difluoromethoxy)propan-2-yl]oxy-N-(5-methylpyrazin-2-yl)-5-(6-methylsulfonylpyridin-3-yl)oxy-benzamide], the EC50 is 69 nM.

For `Cc1cnc(NC(=O)c2cc(Oc3cnc(C(=O)N(C)C)cn3)cc(O[C@@H](C)COC(F)F)c2)cn1` [Example 2, 5-[3-[(2S)-1-(difluoromethoxy)propan-2-yl]oxy-5-[(5-methylpyrazin-2-yl)carbamoyl]phenoxy]-N,N-dimethyl-pyrazine-2-carboxamide], the EC50 stood at 55 nM.

For the compound `C[C@@H](COC(F)F)Oc1cc(Oc2cnc(C(=O)N(C)C)cn2)cc(C(=O)Nc2cc[nH]n2)c1` [Example 3, 5-[3-[(2S)-1-(Difluoromethoxy)propan-2-yl]oxy-5-(1H-pyrazol-3-ylcarbamoyl)phenoxy]-N,N-dimethyl-pyrazine-2-carboxamide], the EC50 was 65 nM.

For the compound `C[C@@H](COC(F)F)Oc1cc(Oc2ccc(S(C)(=O)=O)nc2)cc(C(=O)Nc2cc[nH]n2)c1` [Example 4, 3-[(2S)-1-(difluoromethoxy)propan-2-yl]oxy-5-(6-methylsulfonylpyridin-3-yl)oxy-N-(1H-pyrazol-3-yl)benzamide], the EC50 stood at 33 nM.

Turning to `C[C@@H](COC(F)F)Oc1cc(Oc2cnc(C(=O)N(C)C)cn2)cc(C(=O)Nc2ccn(C)n2)c1` [Example 5, 5-[3-[(2S)-1-(difluoromethoxy)propan-2-yl]oxy-5-[(1-methylpyrazol-3-yl)carbamoyl]phenoxy]-N,N-dimethyl-pyrazine-2-carboxamide], the EC50 stood at 79 nM.

Consider `C[C@@H](COC(F)F)Oc1cc(Oc2ccc(S(C)(=O)=O)nc2)cc(C(=O)Nc2ccn(C)n2)c1` [Example 6, 3-[(2S)-1-(difluoromethoxy)propan-2-yl]oxy-N-(1-methylpyrazol-3-yl)-5-(6-methylsulfonylpyridin-3-yl)oxy-benzamide], for which the EC50 amounted to 77 nM.
